Assays:
[1] = system: Nocardia asteroides (clinical isolate); experiment: Cell viability IC50 screen; conditions: read-out: IC50 without a β-lactam, Nast
[2] = system: Mycobacterium abscessus PM3386 Δbla; format: cell-based; conditions: GSK690693 50 μM
[3] = system: Mycobacterium smegmatis MC^2155 WT; experiment: Cell viability IC50 screen; conditions: for potentiation of IPA by isoniazid, Msmeg: isoniazid at four times less than the lethal concentration; for potentiation with a sub-MIC50 dose of meropenem to inhibit Msmeg growth: meropenem 1.25μg/mL
[4] = system: Mycobacterium tuberculosis H37Rv ΔRD1 ΔpanCD strain mc^26030; format: cell-based; conditions: for activity against Mtb alone: auxotrophic Mtb H37Rv; for activity against Mtb with sub-MIC50 dose of meropenem: meropenem 1μg/mL with clavulonic acid
[5] = in vivo; cited from earlier work
[6] = system: Mycobacterium chelonae (clinical isolate); experiment: MIC shift, M. chelonae
[7] = system: M. marinum; experiment: Growth inhibition and β-lactam potentiation, M. marinum; format: cell-based, Mycobacterium marinum
[8] = target: PknB 1–331 (Mycobacterium tuberculosis, UniProt P9WI81); format: biochemical; conditions: at concentrations tested
Sequence of PknB 1–331 (P9WI81 1-331): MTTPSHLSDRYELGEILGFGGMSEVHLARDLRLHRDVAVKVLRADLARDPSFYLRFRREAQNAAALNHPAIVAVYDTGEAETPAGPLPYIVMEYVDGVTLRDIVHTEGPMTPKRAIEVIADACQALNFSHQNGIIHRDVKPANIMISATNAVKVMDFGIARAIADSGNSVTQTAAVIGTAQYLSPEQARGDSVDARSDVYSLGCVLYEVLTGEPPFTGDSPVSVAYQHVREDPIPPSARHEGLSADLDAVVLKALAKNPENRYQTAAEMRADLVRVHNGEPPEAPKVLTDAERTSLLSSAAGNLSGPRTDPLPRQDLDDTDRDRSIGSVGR

| SMILES | IC50 [1] | potentiation of IPA by isoniazid, Msmeg [3] | potentiation with a sub-MIC50 dose of meropenem to inhibit Msmeg growth [3] | activity against Mtb alone [4] | activity against Mtb with sub-MIC50 dose of meropenem [4] | also measured |
| --- | --- | --- | --- | --- | --- | --- |
| CCn1c(-c2nonc2N)nc2c(C#CC(C)(C)O)nc(OC[C@H](N)c3ccccc3)cc21 [GSK943949A] | 24 to 100 µM | – | – | – | – | – |
| CCn1c(-c2nonc2N)nc2c(C#CC(C)(C)O)ncc(OCC3CCNCC3)c21 [GSK554170A] | 24 to 100 µM | – | – | – | – | – |
| CCn1c(-c2nonc2N)nc2c(C#CC(C)(C)O)ncc(OC[C@H]3CCCNC3)c21 [GSK690693, 4-(2-(4-amino-1,2,5-oxadiazol-3-yl)-1-ethyl-7-{[(3S)-3-piperidinylmethyl]oxy}−1H-imidazo[4,5-c]pyridin-4-yl)-2-methyl-3-butyn-2-ol] | 24 to 100 µM | did not potentiate | able to potentiate | not active | not active | potentiation of kanamycin, Mab [2]: no effect; side-effects in phase I clinical trials [5]: only moderate side-effects; potentiation of meropenem, Mche ([6]; with 8 μg/mL clavulanate): two-fold; potentiation of meropenem, Mche ([6]; without clavulanate): did not see any potentiation; potentiation of β-lactams, M. marinum ([7]; Fig. S7C): does not potentiate; activity alone, M. marinum growth ([7]; Fig. S7D): effective on its own |
| CCn1c(-c2nonc2N)nc2c(C#CC(C)(C)O)nc(O[C@@H](CN)c3ccccc3)cc21 [GSK1007102B] | 24 to 100 µM | did not potentiate | the most potent | able to attenuate the growth | activity was shifted | – |
| CCn1c(-c2nonc2N)nc2cncc(CNC3CCNCC3)c21 [SB-747651A] | – | – | – | – | – | PknB inhibitory activity [8]: no inhibitory activity |
